Seven compounds from patent US8536229B2, “Acetylene derivatives having MGluR 5 antagonistic activity” (Novartis AG, priority 2001, dated 2013) can be followed below.

Data set [1] relates to stress-induced hyperthermia in mice. As to the kind of experiment: stress-induced hyperthermia in mice. The class given is in vivo. The conditions noted are these: reduced from 0.92±0.09° C., p<0.001. As to the method:
A. Lecci at al., Psychopharmacol. 101, 255-261]. At doses of about 0.1 to about 30 mg/kg p.o., the agents of the invention reverse the stress-induced hyperthermia.

Molecules are shown by their SMILES.

A word on the melting point: it is the temperature, or range, at which the solid turns liquid. Regarding `Cc1cccc(C#C[C@]2(O)CCC[C@@H]3[C@H]2CCN3C(=O)c2ccco2)c1` [Example 1b, (−)-(3aR,4S,7aR)-Furan-2-yl-(4-hydroxy-4-m-tolylethynyl-octahydro-indol-1-yl)-methanone], the melting point lay in the range of 195.5 to 196.5 °C.

Turning to `COC(=O)N1CC[C@@H]2[C@H]1CCC[C@@]2(O)C#Cc1cccc(C)c1` [Example 1, (−)-(3aR,4S,7aR)-4-Hydroxy-4-m-tolylethynyl-octahydro-indole-1-carboxylic acid methyl ester], the stress-induced hyperthermia is 0.56±0.06 °C in data set [1] (0.1 mg/kg p.o.), 0.42±0.06 °C in data set [1] (1 mg/kg p.o.) and 0.18±0.05 °C in data set [1] (10 mg/kg p.o.).

On to `CCOC(=O)N[C@@H]1CCC[C@@](O)(C#Cc2cccc(C)c2)C1` (racemic) [Example 6o, (±)-(1RS,3SR)-(3-Hydroxy-3-m-tolylethynyl-cyclohexyl)-carbamic acid ethyl ester], for which the melting point lay in the range of 106 to 107 °C.

Regarding `CCOC(=O)N[C@@H]1CCC[C@@](O)(C#Cc2cccc(F)c2)C1` (racemic) [Example 6u, (±)-(1RS,3SR)-[3-(3-Fluoro-phenylethynyl)-3-hydroxy-cyclohexyl]-carbamic acid ethyl ester], the melting point fell in the range of 121 to 123 °C.

Regarding `CC(=O)N[C@@H]1CCC[C@@](O)(C#Cc2cccc(C)c2)C1` (racemic) [Example 6m, (±)-(1RS,3SR)-N-(3-hydroxy-3-m-tolylethynyl-cyclohexyl)-acetamide], the melting point was in the range of 152 to 155 °C.

The compound `CCOC(=O)N1CC[C@@H]2[C@H]1CCC[C@@]2(O)C#Cc1ccc(F)cc1` (racemic) [Example 1i, (±)-(3aRS,4SR,7aRS)-4-(4-Fluoro-phenylethynyl)-4-hydroxy-octahydro-indole-1-carboxylic acid ethyl ester] displayed a melting point of 115 to 116 °C.

As for `CCOC(=O)N1CC[C@@H]2[C@H]1CCC[C@@]2(O)C#Cc1cccc(C)c1` [Example 1a, (−)-(3aR,4S,7aR)-4-Hydroxy-4-m-tolylethynyl-octahydro-indole-1-carboxylic acid ethyl ester], the melting point fell in the range of 118 to 121 °C.
